According to EP0326640B1, “(1R,5S,6S)-2-substituted thio-6 (R)-1-hydroxyethyl -1-methyl-carbapenem - carboxylic acid derivatives” (LEDERLE (JAPAN) LTD., priority 1987, dated 1989):
Values after ≈ are worked out from the molar mass of the structure shown. Like-named read-outs stand apart in the source and are kept apart here.

Assays:
Test in all cases: Antibacterial activity against clinically isolated β-lactamase (cephalosporinase) producing strains (MIC)
Assay type in all cases: cell-based
[1] = tested on: Klebsiella oxytoca GN 10650; conditions: Klebsiella oxytoca, GN10650, Klebsiella oxytoca GN 10650; cephalosporinase producing strain, SDA, 18 to 20 hours; read-out: MIC
Description: (§1) The antibacterial activities against clinically isolated β-lactamase producing strains were tested by the agar plate dilution method in accordance with the standard method of The Japanese Chemotherapy Society [Chemotherapy, Vol. 29, 76-79 (1981)]. A solution of a cephalosporinase producing strain stored by Episome Research Institute, prepared by incubating the strain in a sensitivity test broth (STB; product of Nissui K. K.) for 18 hours, was diluted with a fresh STB solution so that the solution contained 10⁶ cells per milliliter. The diluted solution was then inoculated as spots in a microplanter on a sensitivity disk agar-N (SDA; product of Nissui K. K.) containing a test compound. The disk agar was then incubated for 18 to 20 hours. The minimum inhibitory concentration was determined as a minimum concentration in which the test microorganism no longer grew after a 18 to 20-hour incubation.

Proteus morganii GN 5407 = conditions: Morganella morganii, GN5407, cephalosporinase producing strain, SDA, 18 to 20 hours, read-out: MIC
Description: as §1

[2] = tested on: Escherichia coli No. 1501; conditions: cephalosporinase producing strain, SDA, 18 to 20 hours, read-out: MIC
Description: as §1

Proteus vulgaris GN 76 = conditions: Proteus vulgaris, GN76, Proteus vulgaris GN 76; cephalosporinase producing strain, SDA, 18 to 20 hours; read-out: MIC
Description: as §1

Escherichia coli No. 96 = conditions: cephalosporinase producing strain, SDA, 18 to 20 hours, read-out: MIC
Description: as §1

[3] = tested on: Enterobacter cloacae GN 7467; conditions: GN7467; Enterobacter cloacae GN 7467; cephalosporinase producing strain, SDA, 18 to 20 hours; read-out: MIC
Description: as §1

[4] = tested on: Citrobactor freundii GN 7391; conditions: cephalosporinase producing strain, SDA, 18 to 20 hours
Description: as §1

Proteus vulgaris GN 4413 = conditions: Proteus vulgaris
Description: as §1

Proteus morganii GN 5375 = conditions: Morganella morganii, GN5375, cephalosporinase producing strain, SDA, 18 to 20 hours, read-out: MIC
Description: as §1

[5] = tested on: Providencia rettgeri GN 5284; conditions: GN5284, cephalosporinase producing strain, SDA, 18 to 20 hours, read-out: MIC
Description: as §1

[6] = tested on: Providencia rettgeri GN 4762; conditions: Providencia rettgeri, GN4762, Providencia rettgeri GN 4762; cephalosporinase producing strain, SDA, 18 to 20 hours; read-out: MIC
Description: as §1

Proteus morganii GN 5307 = conditions: cephalosporinase producing strain, SDA, 18 to 20 hours
Description: as §1

Proteus vulgaris GN 7919 = conditions: cephalosporinase producing strain, SDA, 18 to 20 hours
Description: as §1

[7] = tested on: Citrobactor freundii GN 346; conditions: cephalosporinase producing strain, SDA, 18 to 20 hours
Description: as §1

Escherichia coli GN 5482 = conditions: GN5482, cephalosporinase producing strain, SDA, 18 to 20 hours, read-out: MIC
Description: as §1

[8] = tested on: Enterobacter cloacae GN 5797; conditions: GN5797, cephalosporinase producing strain, SDA, 18 to 20 hours, read-out: MIC
Description: as §1

Serratia marcescens L-82 = conditions: L82, cephalosporinase producing strain, SDA, 18 to 20 hours, read-out: MIC
Description: as §1

[9] = tested on: Serratia marcescens GN 10857; conditions: Serratia marcescens, GN10857, Serratia marcescens GN 10857; cephalosporinase producing strain, SDA, 18 to 20 hours; read-out: MIC
Description: as §1

[10] = tested on: Providencia rettgeri GN 4430; conditions: GN4430, cephalosporinase producing strain, SDA, 18 to 20 hours, read-out: MIC
Description: as §1

Serratia marcescens L-65 = conditions: Serratia marcescens, L65, Serratia marcescens L-65; cephalosporinase producing strain, SDA, 18 to 20 hours; read-out: MIC
Description: as §1

[11] = tested on: Pseudomonas aeruginosa GN 10362; conditions: GN10362, cephalosporinase producing strain, SDA, 18 to 20 hours, read-out: MIC
Description: as §1

[12] = tested on: Enterobacter cloacae GN 7471; conditions: GN7471, cephalosporinase producing strain, SDA, 18 to 20 hours, read-out: MIC
Description: as §1

[13] = tested on: Pseudomonas aeruginosa GN 10367; conditions: Pseudomonas aeruginosa, GN10367, Pseudomonas aeruginosa GN 10367; cephalosporinase producing strain, SDA, 18 to 20 hours
Description: as §1

[14] = tested on: Pseudomonas cepacia GN 11164; conditions: Burkholderia cepacia, GN11164, cephalosporinase producing strain, SDA, 18 to 20 hours, read-out: MIC
Description: as §1

[15] = tested on: Pseudomonas aeruginosa GN 918; conditions: GN918; Pseudomonas aeruginosa GN 918; cephalosporinase producing strain, SDA, 18 to 20 hours; read-out: MIC
Description: as §1

`C[C@@H](O)[C@H]1C(=O)N2C(C(=O)[O-])=C(SCc3cs[n+](C)n3)[C@H](C)[C@H]12` [Amorphous Compd. (14), (1R,5S,6S)-2-[(2-methyl-1,2,3-thiadiazolium-4-yl)methyl]thio-6-[(R)-1-hydroxyethyl]-1-methyl-carbapenem-3-carboxylate] showed an MIC [1] of 0.39 µg/mL (≈ 1.1 µM), an MIC (Proteus morganii GN 5407) of 6.25 µg/mL (≈ 17.6 µM) and an MIC [2] of 0.05 µg/mL (≈ 0.141 µM). The MIC (Proteus vulgaris GN 76) was 6.25 µg/mL (≈ 17.6 µM), the MIC (Escherichia coli No. 96) was 0.05 µg/mL (≈ 0.141 µM) and the MIC [3] was 3.13 µg/mL (≈ 8.81 µM). The MIC [4] was 1.56 µg/mL (≈ 4.39 µM), the MIC (Proteus vulgaris GN 4413; GN4413, Proteus vulgaris GN 4413, cephalosporinase producing strain, SDA, 18 to 20 hours, read-out: MIC) was 6.25 µg/mL (≈ 17.6 µM) and the MIC (Proteus morganii GN 5375) was 3.13 µg/mL (≈ 8.81 µM). The MIC [5] was 0.39 µg/mL (≈ 1.1 µM), the MIC [6] was 0.39 µg/mL (≈ 1.1 µM) and the MIC (Proteus morganii GN 5307; Proteus morganii GN 5307) was 3.13 µg/mL (≈ 8.81 µM). For the same molecule, the MIC (Proteus vulgaris GN 7919; Proteus vulgaris GN 7919) was 6.25 µg/mL (≈ 17.6 µM), the MIC [7] was 0.78 µg/mL (≈ 2.19 µM) and the MIC (Escherichia coli GN 5482) was 0.05 µg/mL (≈ 0.141 µM). It also gave an MIC [8] of 0.1 µg/mL (≈ 0.281 µM), an MIC (Serratia marcescens L-82) of 0.2 µg/mL (≈ 0.563 µM) and an MIC [9] of 6.25 µg/mL (≈ 17.6 µM). For the same molecule, the MIC [10] was 0.39 µg/mL (≈ 1.1 µM), the MIC (Serratia marcescens L-65) was 0.78 µg/mL (≈ 2.19 µM) and the MIC [11] was 0.78 µg/mL (≈ 2.19 µM). The MIC [12] was 0.1 µg/mL (≈ 0.281 µM), the MIC [13] was 1.56 µg/mL (≈ 4.39 µM) and the MIC [14] was 0.39 µg/mL (≈ 1.1 µM). The MIC [15] was 0.78 µg/mL (≈ 2.19 µM).
`C[C@@H](O)[C@H]1C(=O)N2C(C(=O)O)=C(SCCN=CN)C[C@H]12` [Imipenem, imipenem] was tested, and the MIC [1] was 0.2 µg/mL (≈ 0.668 µM), the MIC (Proteus morganii GN 5407) was 3.13 µg/mL (≈ 10.5 µM) and the MIC [2] was 0.1 µg/mL (≈ 0.334 µM). The MIC (Proteus vulgaris GN 76) was 3.13 µg/mL (≈ 10.5 µM), the MIC (Escherichia coli No. 96) was 0.1 µg/mL (≈ 0.334 µM) and the MIC [3] was 0.78 µg/mL (≈ 2.61 µM). It also gave an MIC [4] of 0.78 µg/mL (≈ 2.61 µM), an MIC (Proteus vulgaris GN 4413; GN4413) of 6.25 µg/mL (≈ 20.9 µM) and an MIC (Proteus morganii GN 5375) of 3.13 µg/mL (≈ 10.5 µM). The MIC [5] was 0.39 µg/mL (≈ 1.3 µM), the MIC [6] was 0.39 µg/mL (≈ 1.3 µM) and the MIC (Proteus morganii GN 5307; Morganella morganii, GN5307, Proteus morganii GN 5307, read-out: MIC) was 0.78 µg/mL (≈ 2.61 µM). The MIC (Proteus vulgaris GN 7919; Proteus vulgaris, GN7919, Proteus vulgaris GN 7919, read-out: MIC) was 0.39 µg/mL (≈ 1.3 µM), the MIC [7] was 0.39 µg/mL (≈ 1.3 µM) and the MIC (Escherichia coli GN 5482) was 0.1 µg/mL (≈ 0.334 µM). For the same molecule, the MIC [8] was 0.39 µg/mL (≈ 1.3 µM), the MIC (Serratia marcescens L-82) was 0.2 µg/mL (≈ 0.668 µM) and the MIC [9] was 3.13 µg/mL (≈ 10.5 µM). The MIC [10] was 0.39 µg/mL (≈ 1.3 µM), the MIC (Serratia marcescens L-65) was 0.39 µg/mL (≈ 1.3 µM) and the MIC [11] was 0.78 µg/mL (≈ 2.61 µM). The MIC [12] was 0.2 µg/mL (≈ 0.668 µM), the MIC [13] was 1.56 µg/mL (≈ 5.21 µM) and the MIC [14] was 3.13 µg/mL (≈ 10.5 µM). It also gave an MIC [15] of 0.78 µg/mL (≈ 2.61 µM).
